Reference: patent US20230167068A1, “BENZOPYRAZOLE COMPOUND” (MEDSHINE DISCOVERY INC., priority 2019, published 2023)

Experiments:
[1] = test system: hMMP-1 promoter reporter gene in Hela cells (GR transcription repression); assay: hMMP1 transcription repression activity, luciferase reporter gene screening system (hMMP1 GR transcription repression test); assay type: cell-based; details: Homo sapiens; for Emax: HeLa, maximum effect value, positive control 1000 nM dexamethasone, read-out: TR (hMMP1 transcription inhibition activity) Effect; for IC50: absolute IC50, HeLa hMMP-1/luciferase cells, 10 nM PMA, 18 h, max concentration 1000 nM, read-out: TR (hMMP1 transcription inhibition activity) IC50
Excerpt: Human MMP-1 promoter region (containing two AP-1 binding sites and two PEA3 sites, a total of 249bp, GenBank catalog #AF023338) was cloned into the upstream of luciferase reporter gene. The hMMP-1 promoter reporter gene was constructed and transfected into Hela cells so that luciferase production could be easily detected. A stable recombinant hMMP-⅟luciferase cell line was used for the development and validation of this experiment.
• [0377] 1) All the culture media were carefully aspirated, and the cell layer was rinsed gently with an appropriate amount of DPBS, and then aspirated. • [0378] 2) An appropriate amount of 0.05% Typsine EDTA was added and incubated in a CO2 incubator for 3-5 minutes to digest the cells. • [0379] 3) The cells were resuspended with an appropriate amount of cell culture medium. • [0380] 4) The required amount of cells were calculated. The cell concentration was 5x10^3 cells/well. • [0381] 5) The cell suspension was diluted with appropriate cell culture medium. • [0382] 6) The cell suspension was dispensed into a disposable sterile loading slot. • [0383] 7) Inoculated 30µL per well into a 384-well plate. • [0384] 8) The cell plate was placed in a 37° C. 5% CO2 incubator for 18-24 hours.
The final DMSO concentration was 0.1%. PMA needs to be protected from light during use.
hMMP1 GR transcription repression activity test • [0395] 1) Inoculated cells: Fresh cells were inoculated into 384 white experimental plates at 5x10^3 cells/30µL/well, and incubated in a 5% CO2 incubator at 37° C. for 24 hours. • [0396] 2) Compound preparation: The compound plate was prepared before the experiment, and the reference compound (dexamethasone) and the tested compound of 10x concentration were prepared. Finally, the experimental plate of 10× concentration compound was obtained. • [0397] 3) Added compound: 3.3 µL of 10x compound was transferred with Bravo and added to cell plate. Incubated for 18 hours in a 5% CO2 incubator at 37° C. • [0398] 4) 30 µL of Bright-Glo fluorescent detection reagent was transferred to the cell plate. • [0399] 5) Centrifugal incubation for 2 minutes. • [0400] 6) The fluorescence value was measured with the Envision plate reader.
Positive Control: 10 nM PMA + 1000 nM dexamethasone (0.1% DMSO)
Negative control: 10 nM PMA (0.1% DMSO)
(§1) Test compound: Maximum concentration of 1000 nM, 4-fold dilution, 10 wells in total, repeated.
(§2) Dexamethasone: Maximum concentration of 1000 nM, 4-fold dilution, 10 wells in total, repeated.
The graphing software GraphPad Prism5 was used to create the concentration curves of the test compounds and calculate the IC50 values.

[2] = test system: MMTV promoter luciferase reporter in HeLa cell line (GR transcription activation); assay: MMTV transcription activation activity, luciferase reporter gene screening system (MMTV_GR transcription activation experiment); assay type: cell-based; details: Homo sapiens; for Emax: HeLa, maximum effect value, positive control 1000 nM dexamethasone, read-out: TA (MMTV transcription activation activity) Effect; for EC50: absolute EC50, HeLa MMTV-luciferase cells, 18 h, max concentration 1000 nM, read-out: TA (MMTV transcription activation activity) EC50
Excerpt: The promoter of mouse mammary tumor virus (MMTV) contains specific binding sites for activating GRs (GREs). To determine the activity of the compounds, a reporter gene (luciferase) was inserted after the MMTV promoter, and this construct was expressed in a stable manner in the genome of the HeLa cell line. MMTV promoter was activated by the test compounds to induce the expression of luciferase, and its activity was detected by luminescence measurement.
• [0442] 1) All the culture media were carefully aspirated, the cell layer was rinsed gently with an appropriate amount of DPBS, and then aspirated. • [0443] 2) An appropriate amount of 0.05% Typsine EDTA was added and incubated in a CO2 incubator for 3-5 minutes to digest the cells. • [0444] 3) The cells were resuspended with an appropriate amount of cell culture medium. • [0445] 4) The amount of cells required was calculated, and the cell concentration was 4×10^3 cells/well. • [0446] 5) The cell suspension was diluted with appropriate cell culture medium. • [0447] 6) Cell suspension was dispensed into a disposable sterile loading slot. • [0448] 7) Inoculated 30 µL per well into a 384-well plate. • [0449] 8) The cell plate was placed in a 37° C. 5% CO2 incubator for 18-24 hours.
Compounds were diluted with DMSO to 1 mM, 0.25 mM, 0.0625 mM, 0.015625 mM, 0.0039 mM, 0.0009765 mM, 0.000244 mM, 0.000061 mM, 0.00001526 mM and 0.0000038125 mM, then diluted 25-fold with serum culture medium treated with activated carbon, and finally 4x concentration compound experimental plate was obtained, prepared before use.
The final DMSO experimental concentration was 0.1%.
MMTV_GR transcription activation activity experiment • [0458] 1) Inoculated cells: Fresh cells were inoculated into 384 white transparent bottom experimental plates at 4×10^3 cells/30 µL/well, and incubated at 37° C. 5% CO2 incubator for 24 hours. • [0459] 2) Compound preparation: The compound plate was prepared before the experiment, and the reference compound (dexamethasone) and the test compound of 4x concentration were prepared. Finally, the experimental plate of 4x concentration compound was obtained. • [0460] 3) Added compound: 10 µL of 4x compound was transferred with Bravo and added to cell plate. Incubated for 18 hours in a 37° C. 5% CO2 incubator. • [0461] 4) 30 µL of Bright-Glo fluorescent detection reagent was transferred to the cell plate. • [0462] 5) Centrifugal incubation for 2 minutes. • [0463] 6) The fluorescence value was measured with the Envision plate reader.
Positive control: 1000 nM dexamethasone (0.1% DMSO)
Negative control: 0.1% DMSO
as §1, §2
The graphing software GraphPad Prism5 was used to create the concentration curves of the tested compounds and calculate the IC50 values.

CC(C)[C@H](NC(=O)C(C)(F)F)[C@H](Oc1ccc2c(cnn2-c2ccc3c(c2)CCO3)c1)c1ccccc1 [WX005] was tested, and the Emax [1] was 70.7% and the IC50 [1] was 6.75 nM.
With CC(C)[C@H](NC(=O)C(C)(F)F)[C@H](Oc1ccc2c(cnn2-c2ccc3c(c2)CCCO3)c1)c1ccccc1 [WX006] the Emax [1] was 73% and the IC50 [1] was 79.2 nM.
Compound CC(C)[C@H](NC(=O)C(C)(F)F)[C@H](Oc1ccc2c(cnn2-c2ccc3ncccc3c2)c1)c1ccccc1 [WX007] has an Emax [1] of 63.6% and an IC50 [1] of 121 nM.
Work on CC(C)[C@H](NC(=O)C(C)(F)F)[C@H](Oc1ccc2c(cnn2-c2ccc3c(c2)OCO3)c1)c1ccccc1 [WX008] yielded an Emax [1] of 91.4% and an IC50 [1] of 58.9 nM.
For C[C@H](NC(=O)C(C)(F)F)[C@H](Oc1ccc2c(cnn2-c2ccc3nccn3c2)c1)c1ccccc1 [WX012], the Emax [2] was 103% and the EC50 [2] was 0.019 nM.
CC(C)[C@H](NC(=O)C(C)(F)F)[C@H](Oc1ccc2c(cnn2-c2ccc3nnnn3c2)c1)c1ccccc1 [WX024] gave an Emax [1] of 54.5%, an IC50 [1] of 32.5 nM and an Emax [2] of 31.5%. For the same compound, the EC50 [2] was 78.2 nM.
For CC(C)[C@H](NC(=O)C(C)(F)F)[C@H](Oc1ccc2c(cnn2-c2cn3cnnc3cn2)c1)c1ccccc1 [WX025], the Emax [1] was 76.1% and the IC50 [1] was 28.4 nM.
CC(C)[C@H](NC(=O)C(C)(F)F)[C@H](Oc1ccc2c(cnn2-c2cnc3cnccn23)c1)c1ccccc1 [WX027] gave an Emax [1] of 79% and an IC50 [1] of 70.6 nM.
C[C@H](NC(=O)C(C)(F)F)[C@H](Oc1ccc2c(cnn2-c2ccn3cnnc3c2)c1)c1cc(F)cc(F)c1 [WX029] gave an Emax [1] of 93.8%, an IC50 [1] of 13.9 nM and an Emax [2] of 62.9%. For the same compound, the EC50 [2] was 21.4 nM.
For CC(C)[C@H](NC(=O)C(C)(F)F)[C@H](Oc1ccc2c(cnn2-c2ccc3n[nH]c(=O)n3c2)c1)c1ccccc1 [WX031], the Emax [1] was 54.4% and the IC50 [1] was 42.7 nM.
CC(C)[C@H](NC(=O)C(C)(F)F)[C@H](Oc1ccc2c(cnn2-c2ccc3nn(C)c(=O)n3c2)c1)c1ccccc1 [WX032] was tested, and the Emax [1] was 57.4% and the IC50 [1] was 56.6 nM.
CC(C)[C@H](NC(=O)C(C)(F)F)[C@H](Oc1ccc2c(cnn2-c2ccc3noc(=O)n3c2)c1)c1ccccc1 [WX033] showed an Emax [1] of 71.8% and an IC50 [1] of 11.6 nM.
Work on C[C@H](NC(=O)C(C)(F)F)[C@H](Oc1ccc2c(cnn2-c2ccc3[nH]c(=O)oc3c2)c1)c1cc(F)cc(F)c1 [WX036] yielded an Emax [1] of 92.8%, an IC50 [1] of 0.905 nM and an Emax [2] of 80.1%. For the same compound, the EC50 [2] was 2.31 nM.
Cc1nnc2ccc(-n3ncc4cc(O[C@H](c5cc(F)cc(F)c5)[C@H](C)NC(=O)C(C)(F)F)ccc43)cn12 [WX037] gave an Emax [1] of 87.8%, an IC50 [1] of 5.66 nM and an Emax [2] of 73%. It also gave an EC50 [2] of 12.6 nM.
For CC(C)[C@H](NC(=O)C(C)(F)F)[C@H](Oc1ccc2c(cnn2-c2cnn(C)c2)c1)c1cc(F)cc(F)c1 [WX042], the Emax [1] was 89%, the IC50 [1] was 1.38 nM and the Emax [2] was 43.5%. It also gave an EC50 [2] of 3.06 nM.
Work on CC(C)[C@H](NC(=O)C(C)(F)F)[C@H](Oc1ccc2c(cnn2-c2cnn(C)c2)c1)c1ccccc1 [WX045] yielded an Emax [1] of 73.6%, an IC50 [1] of 6.74 nM and an Emax [2] of 55.6%. It also gave an EC50 [2] of 12.9 nM.
With C[C@H](NC(=O)C(C)(F)F)[C@H](Oc1ccc2c(cnn2-c2cscn2)c1)c1ccccc1 [WX052] the Emax [1] was 92.5%, the IC50 [1] was 0.97 nM and the Emax [2] was 57.8%. For the same compound, the EC50 [2] was 3.37 nM.
